Results on two compounds are retold here after patent publication US20140303109A1 (priority 2010, published 2014).

As usually defined, the Cmax is the highest concentration seen after dosing.

Data set [1] concerns BxPC-3 pancreatic cancer cells. Put plainly: Cell Apoptosis ELISA (histone/DNA fragments), BxPC-3. Format: cell-based, human. Conditions: 72 h, various concentrations. The source says: A Cell Apoptosis ELISA Detection Kit (Roche, Palo Alto, Calif.) was used to determine whether the inhibition of cell growth could be due, at least partially, to the induction of apoptosis, in the BxPC-3 pancreatic cancer cells. […] After the treatment, the cytoplasmic histone/DNA fragments were extracted and bound to immobilized anti-histone antibody. Subsequently, peroxidase-conjugated anti-DNA antibody was used for the detection of immobilized histone/DNA fragments.

A short description of data set [2]: Tissue distribution after single intragastric dose. Format: in vivo, mice. The conditions noted are these: for concentration in the colon: 250 mg/kg oral; for preferential tissue distribution: 250 mg/kg single dose, liver, lung, kidney, heart, pancreas, colon. How it is done: The mice were randomly divided into two groups of 18 mice apiece. […] Blood and tissue samples were harvested before initiation of treatment (0 hr) and at 1, 2, 4, 6, 8, 12, 16, and 24 hrs following the intragastric administration. At each time point, two mice were euthanized and ˜200 μL blood was collected by cardiac puncture, and tissues (liver, lung, kidney, heart, pancreas, and colon) were harvested, washed free of blood with PBS, blotted dry, weighed, and stored at −80° C. until analysis. The collected blood samples were allowed to clot, centrifuged, and then the serum was separated and stored at −80° C. until analysis.
The tissue samples were homogenized in 5 volumes of ice-cold normal saline. Aliquots of serum or tissue homogenate were spiked with ethyl acetate (containing 50 ng/ml zilueton as an internal standard) as follows: 100 μL serum/500 μL ethyl acetate and 500 μL tissue homogenate/1 ml ethyl acetate. The mixtures were vortex-mixed and centrifuged at 14,000 rpm for 5 minutes. The top layer was separated and dried under a stream of nitrogen in a water bath at about 50° C. The residue was reconstituted in 100 μL of methanol/water containing 0.45% formic acid (70:30 v/v) and then centrifuged again.
The supernatant (100 μL) was injected into the HPLC equipment, and separated on a Waters Xterra MS column (2.1×50 mm, […] i.d.) With a mobile phase consisting of methanol/water containing 0.45% formic acid (70:30 v/v) at a flow rate of 0.2 ml/min. The column effluent was monitored using a Waters Quattro Micro™ triple quadrapole mass-spectrometric detector equipped with an electrospray ionization source. (Waters Corporation, Milford, Mass.). […] The internal standard zilueton was monitored in the positive mode at the transition of m/z, 237.1→160.8. […] The within-day and between-day precision and accuracies of the assay was <15%.

In data set [3] the test system is BxPC-3 cells. Kind of data set: MTT cell viability, BxPC-3 (gemcitabine-sensitive). It counts as cell-based, human. Conditions: 0.1-4.0 μMol/L. How it is done: Cell growth was assessed by an MTT assay in a manner similar to that as described above. The color intensity was measured by a TECAN microplate fluorometer (Tecan Group, LTD, Research Triangle Park, N.C.) at 595 nm.

In data set [4] the test system is VEGF. Kind of data set: AlphaLISA VEGF secretion. Format: cell-based, human. Conditions: 72 h; MIAPaCa-E and MIAPaCa-M. The source says:
The effect of CDF on another downstream transcriptional target of NF-κβ, vascular endothelial growth factor (VEGF) secretion, was studied in the three human pancreatic cell lines.

The test system of data set [5] is miR-200b and miR-200c. Put plainly: Real-time RT-PCR of miR-200b and miR-200c in PC cell lines. Format: cell-based, human. Conditions: 72 h; BxPC-3, MIAPaCa-E, MIAPaCaM. On the procedure: The expression of miRNAs (miRNA-200a, miR-200b, and miR-21) in all three pancreatic cancer cell lines, was measured with a TaqMan MicroRNA Assay kit (Applied Biosystems, Carlsbad, Calif.) following the manufacturer's protocol. […] Real-time RT-PCR reactions were then carried out in a total volume of 25 μl reaction mixture, as described by Li, et al., id., using Smart Cycler II (Cepheid, Sunnyvale, Calif.). The data were analyzed using Ct method and were normalized by RNU6B expression in each sample.
For orientation: Real-time PCR tracks product formation cycle by cycle.

The subject of data set [6] is AsPC-1 and MIAPaCa-2 cells. Put plainly: Clonogenic assay, parental lines. It counts as cell-based, human. Conditions: 4 μmol/L CUR or CDF, 20 nmol/L GEM.
For data set [7], the system named is AsPC-1-GTR and MIAPaCa-2-GTR cells. Kind of data set: Clonogenic assay, gemcitabine/tarceva-resistant lines. Format: cell-based, human. The conditions noted are these: 4 μmol/L CUR or CDF, 20 nmol/L GEM.
Data set [8] deals with AsPC-1, AsPC1-GTR, MIAPaCa-2, and MIAPaCa-2-GTR cell lines. Put plainly: MTT cell survival and combination index, four PC lines. It counts as cell-based, human. The conditions noted are these: 72 h, 4 μMol/L. The source says: Untreated control has been assigned a value of 100%. The p value shown represents comparisons between a single agent t and their combinations by using a paired t-test. A combination Index (CI)<1 for the CDF and GEM combination indicates synergism. The results are shown on FIGS. 17A to 17D.

Data set [9] relates to pancreatospheres of AsPC-1, AsPC1-GTR, MIAPaCa-2, and MIAPaCa-2-GTR cells. Put plainly: Sphere disintegration assay. It counts as cell-based, human. The conditions noted are these: 5 days treatment of 10-day spheres. The source says:
After allowing 10 days to generate the formation of pancreatospheres, the cells were subjected to the treating agent for 5 days.

Data set [10] concerns CD44 and EpCAM. Kind of data set: CD44 and EpCAM immunostaining of pancreatospheres. It counts as cell-based, human. Conditions: AsPC-1 and AsPC-1-GTR, 7 days. How it is done:
Single cell suspensions of AsPC-1 and AsPC-1-GTR were plated into sphere formation media as previously described. After 7 days, the pancreatospheres were collected, washed, and fixed. The CSC biomarkers, CD44 and EpCAM, were used for immunostaining and the pancreatospheres were examined with confocal microscopy.

Data set [11] has as its system pancreatosphere-derived tumor cells. Put plainly: Pancreatosphere formation by pancreatosphere-derived tumor cells. It counts as cell-based. Conditions: cells harvested from pancreatosphere-derived tumors. The source says:
Pancreatospheres (5,000) derived from MIAPaCa-2 cells were isolated and implanted in mice with 1:1 matrigel. […] RNA was extracted from the tumor tissue and assayed.
The animal was euthanized after 30 days because of tumor burden and photographed.

The subject of data set [12] is rabbit 20S proteasome. Put plainly: Chymotrypsin-like activity of purified 20S proteasome (Suc-LLVY-AMC). It counts as biochemical. The source says: Purified rabbit 20S proteasome and a fluorogenic substrate Suc-LLVY-AMC for the proteasomal chymotrypsin-like activity were obtained from Calbiochem Inc. (San Diego, Calif.).
For data set [13] the following is noted: oral 1 g/kg body wt., mouse; cited from earlier work.

For `COc1cc(/C=C/C(=O)C(=Cc2ccc(F)c(F)c2)C(=O)/C=C/c2ccc(O)c(OC)c2)ccc1O` [CDF, (1E,6E)-1,7-bis(4-hydroxy-3-methoxyphenyl)hepta-1,6-diene{4(3,4 difluorobenzaldehyde)}-3,5-dione], the “induction of apoptotic cell death” value in data set [1] is given as “superior to CUR”. In data set [2], the “concentration in the colon” value was “detectable at high concentrations in the colon” and the preferential tissue distribution result is on record as “accumulated preferentially in the pancreas”. For the same compound, the cell viability entry in data set [3] is recorded as “significant reduction in cell viability”. Also, the “secreted levels of VEGF” value in data set [4] is given as “significant inhibition of secreted levels of VEGF”. Also, the “expression of miR-200b and miR-200c” value in [5] is recorded as “much more pronounced”. Besides, in [6], the clonogenicity result is “significant reduction in clonogenicity”. The compound also returned a reduction of clonogenicity in data set [7] of 80%. In addition, the cell survival entry in data set [8] is given as “much more significant reduction of cell survival in PC cells than GEM, CUR, or their combination”. In addition, the disintegration of pancreatospheres entry in [9] is reported as “remarkably increased disintegration of pancreatospheres”. In [10], the “expression of CD44 and EpCAM in pancreatospheres” value is “decreased the expression of CD44 and EpCAM in pancreatospheres”. Moreover, the “formation of new pancreatospheres” value in data set [11] is on record as “significant inhibition in the formation of new pancreatospheres”.
Turning to `COc1cc(/C=C/C(=O)CC(=O)/C=C/c2ccc(O)c(OC)c2)ccc1O` [CUR, (1E,6E)-1,7-bis(4-hydroxy-3-methoxyphenyl)hepta-1,6-diene-3,5-dione, reference compound], the proteasome inhibition in [12] (10 μM) came to 70%. In addition, the “inhibition of chymotrypsin-like activity of the proteasome” value in data set [12] (1-10 μM, 2 h 37° C.) is 20-70%. Besides, the “induction of apoptotic cell death” value in data set [1] is reported as “induce apoptosis”. For the same compound, in data set [2], the “concentration in the colon” value is “detectable at high concentrations in the colon”; the preferential tissue distribution result is “present mainly in heart and lung tissue”. For the same compound, the “expression of miR-200b and miR-200c” value in data set [5] is “increased expression of miR-200b and miR-200c”. In data set [6], the clonogenicity result is given as “significant reduction in clonogenicity”. Moreover, the Cmax in data set [13] was 220 ng/mL.
